Values joined by “and” are separate entries in the source; they are usually repeats but may differ in a detail not shown here. Equal entries are not always repeated. “Also recorded” adds a separate entry of the source. Where two headings read alike, the source gives them in different places.
What was measured:
[1] = tested on: chimera RXFP2-1 (extracellular domain of RXFP2, transmembrane domain of RXFP1); experiment: HTRF cAMP assay in HEK293T cells transiently transfected with chimera RXFP2-1; type: cell-based, human
Experimental: Fig. 2 6641 is an allosteric agonist of RXFP2. a HEK-RXFP2 cells co-treated with serial dilutions of INSL3 B dimer antagonist and 30 nM INSL3 or 0.28 µM 6641. HTRF cAMP dose-response inhibition curves were normalized to activity without antagonist co-treatment as 0% inhibition. b HTRF cAMP assay in HEK293T cells transiently transfected with WT or chimeric receptors. Chimera RXFP2-1 contains the extracellular domain of RXFP2 and the transmembrane domain of RXFP1, while chimera RXFP1-2 contains the extracellular domain of RXFP1 and the transmembrane domain of RXFP2. For each receptor, cAMP response induced by INSL3 and 6641 was normalized to FSK (2 µM) as 100% efficacy and DMSO vehicle as 0% efficacy. Emax and EC50 were calculated using four parameter nonlinear fit dose-response curves. Results are expressed as mean ± SEM of 3 independent experiments. Diagrams of the chimeric receptors were produced using GPCRdb.org[58], [59].
Complementary RXFP2-1 and RXFP1-2 chimeric receptors were used to further investigate the involvement of the RXFP2 extracellular and transmembrane domains on 6641 activity. RXFP2-1 has the extracellular domain of RXFP2 and transmembrane domain of RXFP1, and RXFP1-2 is its complement.
The HTRF Gs dynamic cAMP assay kit (CisBio, Bedford, MA) was used to measure intracellular cAMP accumulation in HEK293T cells (ATCC, Manassas, VA)[56]. […] The cell stock was verified mycoplasma free and authenticated by ATCC. Transient transfection was accomplished by treating cells in a 6-well plate with a mixture of 2 μg plasmid and 6 μL Lipofectamine 2000 (Invitrogen, Waltham, MA) per manufacturer’s protocol and incubating overnight. For cAMP measurement in 96-well format, HEK293T cells stably transfected with human RXFP2 (HEK-RXFP2), human RXFP1 (HEK-RXFP1), mouse Rxfp1 (HEK-Rxfp1) or transiently transfected with human RXFP1-RXFP2 chimeric receptors were seeded between 7500 and 30,000 cells per well, depending on cell line responsiveness, in serum-free DMEM medium and incubated overnight at 37 °C, 5% CO2. After 18 h, cells were treated with a titration of compound, 2 μM forskolin, or DMSO vehicle. Control wells were also treated with a titration of INSL3 (Phoenix Pharmaceuticals, Burlingame, CA) or human recombinant relaxin 2 (Peprotech, Cranbury, NJ). For the RXFP2 antagonist experiment, cells were co-treated with 0.28 μM compound or 30 nM INSL3 and a titration of the INSL3 B dimer antagonist[38],[39]. For the INSL3 allosteric modulation experiment, cells were co-treated with 0.025, 0.0025, or 0.00025 μM of compound and a titration of INSL3. […] Plates were incubated for 1 h at room temperature and the signal was read on a CLARIOstar plate reader (BMG Labtech, Ortenberg, Germany) at 665 and 620 nm emission wavelengths.

[2] = target: T1, human ADORA1 (Homo sapiens, UniProt P30542); experiment: GloSensor cAMP inhibition assay in ADORA1 transiently transfected HEK293T cells; type: cell-based; settings: for RLU: replicates (1)-(4)
T1 sequence (P30542 1-326): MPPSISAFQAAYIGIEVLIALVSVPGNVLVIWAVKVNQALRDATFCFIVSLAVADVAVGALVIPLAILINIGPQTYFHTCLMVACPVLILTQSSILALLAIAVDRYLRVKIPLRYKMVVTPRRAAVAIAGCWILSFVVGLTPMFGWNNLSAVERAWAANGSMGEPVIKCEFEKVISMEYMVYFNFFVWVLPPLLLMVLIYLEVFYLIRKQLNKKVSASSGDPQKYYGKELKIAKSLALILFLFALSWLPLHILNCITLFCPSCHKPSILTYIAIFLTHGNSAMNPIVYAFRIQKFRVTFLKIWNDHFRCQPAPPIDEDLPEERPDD
Experimental: β-arrestin is an important GPCR adaptor protein that mediates several receptor processes including signaling, desensitization, and trafficking. […] GPCR-mediated β-arrestin recruitment for a panel of 320 human GPCRs was studied in transiently transfected HTLA cells treated with 10 µM compound. The results for all 320 GPCRs tested are summarized in Supplementary Data 1. […] ADORA1 activation by an agonist results in Gαi protein binding, an inhibition of adenylate cyclase and, therefore, a decrease in the cAMP concentration.
Experiments to analyze the cAMP response in RXFP3, RXFP4, and ADORA1 transiently transfected HEK293T cells was performed in the National Institute of Mental Health’s Psychoactive Drug Screening Program, Contract #HHSN-271-2018-00023-C (NIMH PDSP).
ADORA1 activation. cAMP in HEK293T cells transiently transfected with human
ADORA1 was induced by treatment with 0.1 µM of isoproterenol. cAMP inhibition is
Results are reported as raw
RLU values and represent the mean ± SEM of 4 technical replicates.
(1 picture or pasted object on this page, not shown here)

[3] = target: T2, human RXFP4 (Homo sapiens, UniProt Q8TDU9); experiment: GloSensor cAMP assay in RXFP4 transiently transfected HEK293T cells; type: cell-based; settings: for RLU (cAMP, raw): RXFP4, 0.1 µM isoproterenol, replicates (1)-(4)
T2 construct: host or cells: HEK293T (transient)

[4] = cAMP induced by 0.1 µM isoproterenol
[5] = 10 mg/kg PO 3 times per week, 8 weeks

T2 sequence (Q8TDU9 whole entry): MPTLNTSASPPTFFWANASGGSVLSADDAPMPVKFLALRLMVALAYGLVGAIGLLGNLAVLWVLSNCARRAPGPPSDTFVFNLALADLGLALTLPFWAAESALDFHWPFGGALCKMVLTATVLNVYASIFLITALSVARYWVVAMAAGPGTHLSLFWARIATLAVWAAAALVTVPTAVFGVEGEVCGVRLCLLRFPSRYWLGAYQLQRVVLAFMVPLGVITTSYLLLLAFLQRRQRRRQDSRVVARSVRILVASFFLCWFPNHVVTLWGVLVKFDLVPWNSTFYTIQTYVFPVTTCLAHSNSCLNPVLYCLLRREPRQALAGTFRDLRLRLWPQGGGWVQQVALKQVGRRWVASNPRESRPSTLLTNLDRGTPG

O=C1Nc2ccc(-c3cc(C(F)(F)F)cc(C(F)(F)F)c3)cc2C(=O)N2CCN(C(=O)COc3ccc(OC(F)(F)F)cc3I)C[C@@H]12 [compound 6641]
EC50 (1)-(3) ([1]; 6641, individual experiments): Inactive | EC50 (AVERAGE) ([1]; 6641, mean of 3): Inactive | Emax (1)-(3) ([1]; individual experiments, FSK (2 µM) = 100% efficacy): Inactive | Emax (AVERAGE) ([1]; mean (± SEM) of 3, FSK (2 µM) = 100% efficacy): Inactive; also recorded: did not stimulate cAMP production | RLU ([2]; Log [M] -5): 501.695 RLU and 432.184 RLU and 479.802 RLU | RLU ([2]; Log [M] -5.52): 440.941 RLU and 426.71 RLU and 354.463 RLU and 361.031 RLU | RLU ([2]; Log [M] -6): 417.406 RLU and 427.258 RLU and 437.11 RLU and 429.447 RLU | RLU ([2]; Log [M] -6.52): 436.015 RLU and 453.53 RLU and 363.767 RLU and 397.155 RLU | RLU ([2]; Log [M] -7): 393.323 RLU and 486.917 RLU and 461.192 RLU and 440.394 RLU | RLU ([2]; Log [M] -7.52): 405.912 RLU and 426.71 RLU and 325.454 RLU and 420.142 RLU | RLU ([2]; Log [M] -8): 517.02 RLU and 436.015 RLU and 373.619 RLU and 451.34 RLU | RLU ([2]; Log [M] -8.52): 377.126 RLU and 431.072 RLU and 331.699 RLU and 385.644 RLU | RLU ([2]; Log [M] -9): 420.424 RLU and 419.005 RLU and 360.091 RLU and 409.777 RLU | RLU ([2]; Log [M] -9.52): 407.648 RLU and 406.938 RLU and 409.777 RLU and 342.346 RLU | cAMP inhibition in ADORA1-HEK293T transfected cells [2, 4]: failed to detect any significant changes | body or organ (liver, kidney) weight vs vehicle [5]: No changes | histological analysis of livers and kidneys [5]: did not show any changes in cell morphology | Left Kidney weight (Left Kidney, after 8-week oral treatment, individual mice): 0.4912 and 0.4654 and 0.4705 and 0.5626 and 0.5314 and 0.5304 and 0.5976 and 0.5317 and 0.5347 and 0.5015 and 0.5707 and 0.5055 and 0.4688 and 0.4947 and 0.545 | Liver weight (Liver, after 8-week oral treatment, individual mice): 4.014 and 3.487 and 3.8235 and 3.754 and 3.582 and 3.355 and 4.71 and 3.617 and 3.875 and 3.519 and 3.904 and 3.698 and 3.86 and 3.544 and 3.928 | Right Kidney weight (Right Kidney, after 8-week oral treatment, individual mice): 0.5699 and 0.5019 and 0.5734 (2×) and 0.5889 and 0.5665 and 0.5265 and 0.5931 and 0.5579 and 0.5793 and 0.6089 and 0.5717 and 0.4908 and 0.5191 and 0.5352 | Body weight (day 18, individual mice): 19.85 g and 17.73 g and 17.98 g and 16.95 g and 18.38 g and 18.83 g and 21.28 g and 19.38 g and 20.27 g and 20.03 g and 16.32 g and 20.68 g and 19.45 g and 18.87 g and 17.54 g | Body weight (day 21, individual mice): 19.93 g and 18.04 g and 17.94 g and 17.08 g and 17.98 g and 19.29 g and 21.67 g and 19.33 g and 20.02 g and 19.71 g and 16.43 g and 21.48 g and 19.84 g and 19.3 g and 18.07 g | Body weight (day 25, individual mice): 20.1 g and 18.01 g and 17.55 g and 16.7 g and 18.33 g and 19.06 g and 21.44 g and 20.16 g and 20.44 g and 20.28 g and 16.93 g and 21.61 g and 19.73 g and 19.34 g and 18.63 g | Body weight (day 28, individual mice): 19.97 g and 17.83 g and 17.52 g and 17.01 g and 18.4 g and 18.9 g and 22.31 g and 19.96 g and 21.2 g and 20.35 g and 17.55 g and 21.63 g and 20.55 g and 19.62 g and 18.84 g | Body weight (day 32, individual mice): 20.73 g and 18.54 g and 18.23 g and 16.58 g and 19.25 g and 19.78 g and 22.35 g and 20.74 g (2×) and 21.45 g and 17.18 g and 20.72 g and 20.18 g and 19.42 g and 18.61 g | Body weight (day 35, individual mice): 20.28 g and 18.14 g and 18.03 g and 17.15 g and 19.17 g and 19.71 g and 22.83 g and 20.57 g and 20.92 g and 19.8 g and 17.11 g and 22.36 g and 20.66 g and 20.25 g and 18.8 g | Body weight (day 39, individual mice): 20.17 g and 18.1 g and 17.93 g and 17.63 g and 19.64 g and 20.24 g and 22.43 g and 20.72 g and 21.92 g and 20.95 g | RLU (cAMP, raw) ([3]; Log [M] -4.52): 2463.26 RLU and 2323.36 RLU and 2574.77 RLU and 2436.25 RLU | RLU (cAMP, raw) ([3]; Log [M] -5): 3185.64 RLU and 3376.11 RLU and 2670.35 RLU and 2223.62 RLU | RLU (cAMP, raw) ([3]; Log [M] -5.52): 2765.92 RLU and 2530.44 RLU and 2513.13 RLU and 2428.63 RLU | RLU (cAMP, raw) ([3]; Log [M] -6): 3247.28 RLU and 3052.66 RLU and 2557.45 RLU and 2549.14 RLU | RLU (cAMP, raw) ([3]; Log [M] -6.52): 2853.88 RLU and 2734.06 RLU and 2619.79 RLU and 2767.31 RLU | RLU (cAMP, raw) ([3]; Log [M] -7): 2986.17 RLU and 3107.38 RLU and 2961.24 RLU and 2947.39 RLU | RLU (cAMP, raw) ([3]; Log [M] -7.52): 3270.14 RLU and 3165.55 RLU and 2781.16 RLU and 2887.13 RLU | RLU (cAMP, raw) ([3]; Log [M] -8): 3594.97 RLU and 2898.21 RLU and 2737.53 RLU and 2621.17 RLU | RLU (cAMP, raw) ([3]; Log [M] -8.52): 2962.83 RLU and 3046.77 RLU and 3010.47 RLU and 2788.15 RLU | RLU (cAMP, raw) ([3]; Log [M] -9): 3689.54 RLU and 3613.16 RLU and 3120.12 RLU and 2641.44 RLU | RLU (cAMP, raw) ([3]; Log [M] -9.52): 3253.97 RLU and 3351.52 RLU and 2965.85 RLU and 3151.88 RLU | RLU (cAMP, raw) ([3]; Log [M] -10): 3784.82 RLU and 3051.3 RLU and 3541.33 RLU and 3042.99 RLU | RLU (cAMP, raw) ([3]; Log [M] -10.52): 2937.88 RLU and 2859.99 RLU and 3018.03 RLU and 2959.05 RLU | RLU (cAMP, raw) ([3]; Log [M] -11): 3244.89 RLU and 3354.54 RLU and 2788.9 RLU and 3100.46 RLU | RLU (cAMP, raw) ([3]; Log [M] -11.52): 3393.86 RLU and 2984 RLU and 2869.06 RLU and 2844.86 RLU | RLU (cAMP, raw) ([3]; Log [M] -12): 3689.54 RLU and 3235.82 RLU and 3343.96 RLU and 2573.39 RLU | activation of RXFP4 (cAMP inhibition) [3, 4]: does not activate
